Measured values: patent US20080234384A1, “BIARYL AND BIHETEROARYL COMPOUNDS USEFUL IN TREATING IRON DISORDERS” (XENON PHARMACEUTICALS INC., priority 2007, published 2008)
Structures can show the parent of a compound that is named as a salt.

These compounds were tested against T1, DMT1 (Homo sapiens, UniProt P49281) (assay: DMT1 Activity Assay (In Vitro Assay)). Conditions: read-out: IC50 Activity Level.
T1 sequence (P49281 1-568): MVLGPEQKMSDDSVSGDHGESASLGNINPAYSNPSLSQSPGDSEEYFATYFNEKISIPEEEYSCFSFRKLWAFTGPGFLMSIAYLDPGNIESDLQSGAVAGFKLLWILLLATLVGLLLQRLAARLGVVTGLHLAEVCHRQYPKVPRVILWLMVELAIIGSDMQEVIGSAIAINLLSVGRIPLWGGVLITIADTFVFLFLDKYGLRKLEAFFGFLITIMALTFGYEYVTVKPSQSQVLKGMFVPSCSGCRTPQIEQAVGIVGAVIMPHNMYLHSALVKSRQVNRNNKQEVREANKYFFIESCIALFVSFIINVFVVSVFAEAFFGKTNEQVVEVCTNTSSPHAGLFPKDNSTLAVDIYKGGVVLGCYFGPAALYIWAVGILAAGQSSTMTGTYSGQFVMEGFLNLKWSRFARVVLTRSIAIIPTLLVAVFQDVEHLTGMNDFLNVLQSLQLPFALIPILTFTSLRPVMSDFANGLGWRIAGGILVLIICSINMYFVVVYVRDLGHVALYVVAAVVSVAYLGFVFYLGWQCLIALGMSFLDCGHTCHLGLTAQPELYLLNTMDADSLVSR
Assay type: cell-based
Description: In particular, identification of the compounds of the invention ability to modulate, preferably to inhibit, DMT1 activity, can be assessed using a variety of in vitro and in vivo assays, for measuring uptake of reduced iron (Fe^2+). One such protocol involves the screening of chemical agents for ability to modulate the activity of DMT1 thereby identifying it as a modulating agent. The in vitro activity of DMT1 can be measured in cell based assays by either directly measuring iron flux (using a radioactively labelled iron ^55Fe) or by measuring the fluorescence of a cell permeable iron fluorophore such as calcein. Stable cell lines overexpressing DMT1 are exposed to ^55Fe or loaded with calcein and then compound is applied. […] Alternatively, in another format electrophysiological techniques can be used to measure the current or iron or other metals traversing the cell membrane with DMT1 in a Xenopus oocyte or other cell based system (Gunshin et al., Nature, 1997, 31; 388(6641):482-8).
This example discloses various in vitro assay for testing and profiling test agents against DMT1 stably expressed in cells of either an endogenous or recombinant origin. These assays can use stable cell lines overexpressing DMT1 or intestinal cells and intestinal tissue expressing endogenous DMT1. DMT1 function could also be assessed in other cell types that express DMT1. Of greatest relevance would be the erythrocytes (e.g. K562 cells) or hepatocytes (e.g. […]).
DMT1 function can be assessed in a number of ways, including monitoring fluorescence changes of an iron fluorophore (e.g. calcein), monitoring uptake of radiolabelled iron (55Fe or ^59Fe) (Picard et al., J. Biol. Chem., 2000, 275(46):35738-45 and Wetli et al., Chem. Biol. 2006 September; 13(9):965-72), or by assessing the current or transport of iron and other metals into the cells or tissues using standard electrophysiological techniques (Gunshin et al., Nature, 1997, 388(6641):482-8.).
Variations of these assays involve alterations of incubation times, the iron status of the cells and tissues (which may be modulated by chemical chelators or by harvesting from iron deficient animals), the metal cation detected and the pH of the reaction can generally be made by conventional techniques known to those skilled in the art.
N=C(N)CCCc1ccccc1Sc1ccccc1CCCC(=N)N [Example 6.2, 2-(6-(3-amidinopropyl)phenyl)thio-1-(3-amidinopropyl)benzene] was tested, and the IC50 was ≥ 1 µM.
For N#CN=C(N)Cc1ccccc1Sc1ccccc1CC(N)=NC#N [Example 7.1, 2-(6-((cyanoamidino)methyl)phenyl)thio-1-((cyanoamidino)methyl)benzene], the IC50 was ≥ 1 µM.
N=C(N)SCc1cc(Cl)ccc1Oc1ccc([N+](=O)[O-])cc1CSC(=N)N [Example 2.20, 2-[2-({[amino(imino)methyl]thio}methyl)-4-chlorophenoxy]-5-nitrobenzyl imidothiocarbamate dihydrobromide] was tested, and the IC50 was ≥ 1 µM.
For N=C(N)SCc1cc(F)ccc1Oc1cccc(Cl)c1CSC(=N)N [Example 2.10, 2-[2-(2-carbamimidoylsulfanylmethyl-3-chlorophenoxy)-5-fluorobenzyl]isothiourea dihydrobromide], the IC50 was ≥ 1 µM.
An IC50 of 0.1 to 1 µM was found for COc1ccc(Sc2ccc(F)cc2CSC(=N)N)c(CSC(=N)N)c1 [Example 1.6, 2-[2-(2-carbamimidoylsulfanylmethyl-4-methoxyphenylsulfanyl)-5-fluorobenzyl]isothiourea dihydrobromide] in this work.
In the case of N=C(N)SCc1cc(F)ccc1S(=O)(=O)c1ccc(F)cc1CSC(=N)N [Example 2.4, 2-[2-(2-carbamimidoylsulfanylmethyl-4-fluorophenylsulfonyl)-5-fluorobenzyl]isothiourea dihydrobromide], the IC50 is reported as ≥ 1 µM.
An IC50 of 0.01 to 0.1 µM was found for N=C(N)SCc1cc(F)ccc1Sc1ccc([N+](=O)[O-])cc1CSC(=N)N [Example 2.1, 2-{[2-({[amino(imino)methyl]thio}methyl)-4-fluorophenyl]thio}-5-nitrobenzyl imidothiocarbamate dihydrobromide] in this work.
An IC50 of 0.1 to 1 µM was found for N=C(N)SCc1cc(F)ccc1Oc1cc(F)ccc1CSC(=N)N [Example 2.12, 2-[2-(2-carbamimidoylsulfanylmethyl-5-fluorophenoxy)-5-fluorobenzyl]isothiourea dihydrobromide] in this work.
An IC50 of 0.1 to 1 µM was found for N=C(N)SCc1cc(F)ccc1Sc1ccc(Cl)cc1CSC(=N)N [Example 1.20, 2-[2-(2-carbamimidoylsulfanylmethyl-4-chlorophenylsulfanyl)-5-fluorobenzyl]isothiourea dihydrobromide] in this work.
For N=C(N)SCc1ccccc1Oc1ccc(Cl)cc1CSC(=N)N [Example 2.16, 2-[2-({[amino(imino)methyl]thio}methyl)-4-chlorophenoxy]benzyl imidothiocarbamate dihydrobromide], the IC50 was ≥ 1 µM.
An IC50 of 0.1 to 1 µM was found for N=C(N)SCc1ccccc1Oc1ccc(F)cc1CSC(=N)N [Example 2.21, 2-[2-({[amino(imino)methyl]thio}methyl)-4-fluorophenoxy]benzyl imidothiocarbamate dihydrobromide] in this work.
An IC50 of 0.1 to 1 µM was found for N=C(N)SCc1ccccc1Sc1cc(F)c(F)cc1CSC(=N)N [Example 1.9, 2-[2-(2-carbamimidoylsulfanylmethyl-4,5-difluorophenylsulfanyl)-benzyl]isothiourea dihydrobromide] in this work.
N=C(N)SCCc1ccccc1Sc1ccccc1CCSC(=N)N [Example 1.31, dihydrobromide] was tested, and the IC50 was ≥ 1 µM.
N=C(N)SCc1ccccc1Oc1cccc(Cl)c1CSC(=N)N [Example 2.17, 2-[2-({[amino(imino)methyl]thio}methyl)-3-chlorophenoxy]benzyl imidothiocarbamate dihydrobromide] was tested, and the IC50 was ≥ 1 µM.
With CNC(=N)SCc1ccccc1Sc1ccccc1CSC(=N)NC [Example 1.29, 2-[2-(2-methylcarbamimidoylsulfanylmethylphenylsulfanyl)benzyl]-methylisothiourea dihydrobromide] the IC50 was ≥ 1 µM.
An IC50 of 0.1 to 1 µM was found for N=C(N)SCc1ccccc1Sc1ccc(F)cc1CSC(=N)N [Example 1.2, 2-[2-(2-carbamimidoylsulfanylmethyl-4-fluorophenylsulfanyl)benzyl]-isothiourea dihydrobromide] in this work.
N=C(N)SCc1cccc(CSC(=N)N)c1-c1c(CSC(=N)N)cccc1CSC(=N)N [Example 2.23, biphenyl-2,2′-6,6′-tetrayltetrakis(methylene)tetracarbamimidothioate tetrahydrobromide] was tested, and the IC50 was ≥ 1 µM.
In the case of NC(=S)Nc1ccccc1Sc1ccccc1NC(N)=S [Example 8, 1,1′-(2,2′-thiobis(2,1-phenylene))dithiourea], the IC50 is reported as ≥ 1 µM.
With COC(=O)c1cccc(CSC(=N)N)c1-c1c(CSC(=N)N)cccc1C(=O)OC [Example 2.24, dimethyl 6,6′-bis(carbamimidoylthiomethyl)biphenyl-2,2′-dicarboxylate dihydrobromide] the IC50 was ≥ 1 µM.
For N=C(N)SCc1ccccc1-c1ccccc1CSC(=N)N [Example 9, 2-(2′-carbamimidoylsulfanylmethyl-biphenyl-2-ylmethyl)-isothiourea], the IC50 was ≥ 1 µM.
For CC(SC(=N)N)c1ccccc1Oc1ccccc1C(C)SC(=N)N (stereo not drawn) [Example 1, 2-(1-{2-[2-(1-carbamimidoylsulfanylethyl)phenoxy]phenyl}ethyl)-isothiourea dihydrobromide], the IC50 was ≥ 1 µM.
In the case of N#Cc1ccc(Sc2ccc(Cl)cc2CSC(=N)N)c(CSC(=N)N)c1 [Example 2.8, 2-{[2-({[amino(imino)methyl]thio}methyl)-4-chlorophenyl]thio}-5-cyanobenzyl imidothiocarbamate dihydrobromide], the IC50 is reported as ≥ 1 µM.
N=C(NN)SCc1ccccc1Sc1ccccc1CSC(=N)NN [Example 3, 2-(6-((aminoamidino)thiomethyl)phenyl)thio-1-((aminoamidino)thiomethyl)benzene dihydrobromide] was tested, and the IC50 was ≥ 1 µM.
N=C(N)SCc1ccc(Cl)cc1Oc1cc([N+](=O)[O-])ccc1CSC(=N)N [Example 2.9, 2-[2-({[amino(imino)methyl]thio}methyl)-5-chlorophenoxy]-4-nitrobenzyl imidothiocarbamate dihydrobromide] was tested, and the IC50 was ≥ 1 µM.
N=C(N)SCc1cc(F)ccc1Sc1ccc2ccccc2c1CSC(=N)N [Example 1.14, 2-[2-(1-carbamimidoylsulfanylmethylnaphthalen-2-ylsulfanyl)-5-fluorobenzyl]isothiourea dihydrobromide] was tested, and the IC50 was ≥ 1 µM.
N=C(N)NCCc1ccccc1Sc1ccccc1CCNC(=N)N [Example 5, (4-methylbenzenesulfonate)] was tested, and the IC50 was ≥ 1 µM.
An IC50 of 0.1 to 1 µM was found for N=C(N)SCc1cc(F)ccc1Oc1ccc(F)cc1CSC(=N)N [Example 2.13, 2-[2-(2-carbamimidoylsulfanylmethyl-4-fluorophenoxy)-5-fluorobenzyl]isothiourea dihydrobromide] in this work.
Cc1ccc(CSC(=N)N)c(Sc2ccc(F)cc2CSC(=N)N)c1 [Example 1.5, 2-[2-(2-carbamimidoylsulfanylmethyl-5-methylphenylsulfanyl)-5-fluorobenzyl]isothiourea dihydrobromide] was tested, and the IC50 was ≥ 1 µM.
In the case of N=C(N)SCc1ccccc1S(=O)(=O)c1ccccc1CSC(=N)N [Example 2.3, 2-[2-(2-carbamimidoylsulfanylmethylphenylsulfonyl)benzyl]-isothiourea dihydrobromide], the IC50 is reported as ≥ 1 µM.
N=C(N)SCc1cc([N+](=O)[O-])ccc1Oc1cc(Cl)ccc1CSC(=N)N [Example 2.19, 2-[2-({[amino(imino)methyl]thio}methyl)-5-chlorophenoxy]-5-nitrobenzyl imidothiocarbamate dihydrobromide] was tested, and the IC50 was ≥ 1 µM.
An IC50 of 0.1 to 1 µM was found for N=C(N)SCc1ccccc1Sc1ccc(Cl)cc1CSC(=N)N [Example 1.26, 2-[2-(2-carbamimidoylsulfanylmethylphenylsulfanyl)-5-chlorobenzyl]-isothiourea dihydrobromide] in this work.
CCNc1ccc(Sc2ccccc2CSC(=N)N)c(CSC(=N)N)c1 [Example 1.21, 2-[2-(2-carbamimidoylsulfanylmethylphenylsulfanyl)-5-ethylaminobenzyl]isothiourea trihydrobromide] was tested, and the IC50 was ≥ 1 µM.
An IC50 of 0.1 to 1 µM was found for N=C(N)SCc1ccccc1C(=O)c1ccccc1CSC(=N)N [Example 2.25, 2-(6-(amidinothiomethyl)phenyl)carbonyl-1-(amidinothiomethyl)benzene dihydrobromide] in this work.
